The source of these data is the supplement of paper PMC11368000.

For the first assay, the system named is 30145 (donor line of iPSC-derived cardiomyocytes). Briefly: POD (EC05) for decrease in beat frequency (negative chronotrope) vs vehicle; higher = less potent (higher point of departure). The following applies: exposure time: 90 min. The method, then: (§1)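 Human iPSC-derived cardiomyocytes from 16 donors were exposed for 90 min at 37 °C to each PFAS at 0.1, 1, 10 and 100 µM in 0.5% DMSO, 384-well plates. Kinetic Ca2+ flux (FLIPR) and Hoechst nuclei counts were normalised to vehicle wells and fitted with a hierarchical Bayesian Hill model to give donor-specific PODs: EC05 for beat-rate increase or decrease and for decay-to-rise ratio increase (QT proxy), EC95 for peak-frequency loss (asystole), EC10 for total cell number loss. 0.03 µM is the lower bound.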
On to `OCCC(F)(F)C(F)(F)C(F)(F)C(F)(F)C(F)(F)C(F)(F)F` [6:2 Fluorotelomer alcohol], for which the POD vs vehicle is > 100 µM.

In the case of `O=S(=O)(O)CCC(F)(F)C(F)(F)C(F)(F)C(F)(F)C(F)(F)C(F)(F)F` [6:2 Fluorotelomer sulfonic acid], the POD vs vehicle was > 100 µM.

As for `OCCC(F)(F)C(F)(F)C(F)(F)C(F)(F)C(F)(F)C(F)(F)C(F)(F)C(F)(F)F` [8:2 Fluorotelomer alcohol], the POD vs vehicle is > 100 µM.

In turn, `O=S(=O)(O)CCC(F)(F)C(F)(F)C(F)(F)C(F)(F)C(F)(F)C(F)(F)C(F)(F)C(F)(F)F` [8:2 Fluorotelomer sulfonic acid] displayed a POD vs vehicle of 15.3 µM.

For the compound `O=C(O)C(F)(F)C(F)(F)C(F)(F)C(F)(F)C(F)(F)C(F)(F)C(F)(F)C(F)(F)Cl` [9-Chloro-perfluorononanoic_acid], the POD vs vehicle is > 100 µM.

Regarding `O=P(O)(O)CCC(F)(F)C(F)(F)C(F)(F)C(F)(F)C(F)(F)C(F)(F)C(F)(F)C(F)(F)F` [((Perfluorooctyl)ethyl)phosphonic_acid], the POD vs vehicle is > 100 µM.

Turning to `O=C([O-])C(F)(F)C(F)(F)C(F)(F)C(F)(F)C(F)(F)C(F)(F)C(F)(F)F.[NH4+]` [Ammonium_perfluorooctanoate], the POD vs vehicle was > 100 µM.

As to `OCC(F)(F)C(F)(F)C(F)(F)C(F)(F)C(F)(F)C(F)F` [Dodecafluoroheptanol], the POD vs vehicle was found to be 19.4 µM.

For the compound `OCC(F)(F)OC(F)(F)C(F)(F)OC(F)(F)C(F)(F)OC(F)(F)F` [Fluorinated_triethylene_glycol_monomethyl_ether], the POD vs vehicle is > 100 µM.

As for `OCC(F)(F)C(F)(F)C(F)(F)F` [Heptafluorobutanol], the POD vs vehicle was > 100 µM.

Take `OCC(F)(F)C(F)(F)C(F)(F)CO` [Hexafluoroamylene_glycol]: the POD vs vehicle is > 100 µM.

Consider `COC(=O)C(F)(F)C(F)(F)OC(F)(C(F)(F)F)C(F)(F)OC(F)=C(F)F` (configuration not stated) [Methyl_perfluoro(3-(1-ethenyloxypropan-2-yloxy)propanoate)], for which the POD vs vehicle is > 100 µM.

Turning to `NC(=O)C(F)(F)C(F)(F)C(F)(F)C(F)(F)F` [Nonafluoropentanamide], the POD vs vehicle is > 100 µM.

Take `NC(=O)C(F)(F)C(F)(F)C(F)(F)C(F)(F)C(N)=O` [Octafluoroadipamide]: the POD vs vehicle is > 100 µM.

As for `O=C(O)C(F)(F)C(F)(F)C(F)(F)C(F)(F)C(=O)O` [Octafluoroadipic_acid], the POD vs vehicle is > 100 µM.

On to `O=C(O)C(F)(F)C(F)(F)C(F)(F)OC(F)(F)F` [Perfluoro(4-methoxybutanoic)_acid], for which the POD vs vehicle was > 100 µM.

Turning to `O=C(O)C(F)(F)OC(F)(F)C(F)(F)OC(F)(F)C(F)(F)OC(F)(F)C(F)(F)C(F)(F)C(F)(F)F` [Perfluoro-3,6,9-trioxatridecanoic_acid], the POD vs vehicle is > 100 µM.

Regarding `O=C(O)C(F)(F)OC(F)(F)C(F)(F)OC(F)(F)F` [Perfluoro-3,6-dioxaheptanoic_acid], the POD vs vehicle is > 100 µM.

Consider `O=C(O)C(F)(F)OC(F)(F)C(F)(F)OC(F)(F)C(=O)O` [Perfluoro-3,6-dioxaoctane-1,8-dioic_acid], for which the POD vs vehicle is > 100 µM.

For a further assay, the system named is 1118 (donor line of iPSC-derived cardiomyocytes). Described as above. The following applies: exposure time: 90 min. The method, then:
as §1
`OCCC(F)(F)C(F)(F)C(F)(F)C(F)(F)C(F)(F)C(F)(F)F` [6:2 Fluorotelomer alcohol]: the POD vs vehicle worked out at 31.5 µM.

The compound `O=S(=O)(O)CCC(F)(F)C(F)(F)C(F)(F)C(F)(F)C(F)(F)C(F)(F)F` [6:2 Fluorotelomer sulfonic acid] had a POD vs vehicle of 12.8 µM.

Take `OCCC(F)(F)C(F)(F)C(F)(F)C(F)(F)C(F)(F)C(F)(F)C(F)(F)C(F)(F)F` [8:2 Fluorotelomer alcohol]: the POD vs vehicle was > 100 µM.

`O=S(=O)(O)CCC(F)(F)C(F)(F)C(F)(F)C(F)(F)C(F)(F)C(F)(F)C(F)(F)C(F)(F)F` [8:2 Fluorotelomer sulfonic acid]: the POD vs vehicle is > 100 µM.

For the compound `O=C(O)C(F)(F)C(F)(F)C(F)(F)C(F)(F)C(F)(F)C(F)(F)C(F)(F)C(F)(F)Cl` [9-Chloro-perfluorononanoic_acid], the POD vs vehicle came out at 13.1 µM.

Turning to `O=P(O)(O)CCC(F)(F)C(F)(F)C(F)(F)C(F)(F)C(F)(F)C(F)(F)C(F)(F)C(F)(F)F` [((Perfluorooctyl)ethyl)phosphonic_acid], the POD vs vehicle is > 100 µM.

`O=C([O-])C(F)(F)C(F)(F)C(F)(F)C(F)(F)C(F)(F)C(F)(F)C(F)(F)F.[NH4+]` [Ammonium_perfluorooctanoate] displayed a POD vs vehicle of 11 µM.

In turn, `OCC(F)(F)C(F)(F)C(F)(F)C(F)(F)C(F)(F)C(F)F` [Dodecafluoroheptanol] had a POD vs vehicle of 1.39 µM.

As to `OCC(F)(F)OC(F)(F)C(F)(F)OC(F)(F)C(F)(F)OC(F)(F)F` [Fluorinated_triethylene_glycol_monomethyl_ether], the POD vs vehicle came out at 2.52 µM.

As to `OCC(F)(F)C(F)(F)C(F)(F)F` [Heptafluorobutanol], the POD vs vehicle is > 100 µM.

With `OCC(F)(F)C(F)(F)C(F)(F)CO` [Hexafluoroamylene_glycol], the POD vs vehicle was > 100 µM.

Take `COC(=O)C(F)(F)C(F)(F)OC(F)(C(F)(F)F)C(F)(F)OC(F)=C(F)F` (configuration not stated) [Methyl_perfluoro(3-(1-ethenyloxypropan-2-yloxy)propanoate)]: the POD vs vehicle is > 100 µM.

The compound `NC(=O)C(F)(F)C(F)(F)C(F)(F)C(F)(F)F` [Nonafluoropentanamide] gave a POD vs vehicle of 17.3 µM.

With `NC(=O)C(F)(F)C(F)(F)C(F)(F)C(F)(F)C(N)=O` [Octafluoroadipamide], the POD vs vehicle is > 100 µM.

Take `O=C(O)C(F)(F)C(F)(F)C(F)(F)C(F)(F)C(=O)O` [Octafluoroadipic_acid]: the POD vs vehicle was > 100 µM.

On to `O=C(O)C(F)(F)C(F)(F)C(F)(F)OC(F)(F)F` [Perfluoro(4-methoxybutanoic)_acid], for which the POD vs vehicle was > 100 µM.

Regarding `O=C(O)C(F)(F)OC(F)(F)C(F)(F)OC(F)(F)C(F)(F)OC(F)(F)C(F)(F)C(F)(F)C(F)(F)F` [Perfluoro-3,6,9-trioxatridecanoic_acid], the POD vs vehicle was determined as 18.3 µM.

With `O=C(O)C(F)(F)OC(F)(F)C(F)(F)OC(F)(F)F` [Perfluoro-3,6-dioxaheptanoic_acid], the POD vs vehicle was > 100 µM.

For the compound `O=C(O)C(F)(F)OC(F)(F)C(F)(F)OC(F)(F)C(=O)O` [Perfluoro-3,6-dioxaoctane-1,8-dioic_acid], the POD vs vehicle was > 100 µM.

In a further assay the test system is 1535 (donor line of iPSC-derived cardiomyocytes). Described as above. To be noted: exposure time: 90 min. The procedure: as §1
Turning to `OCCC(F)(F)C(F)(F)C(F)(F)C(F)(F)C(F)(F)C(F)(F)F` [6:2 Fluorotelomer alcohol], the POD vs vehicle is > 100 µM.

`O=S(=O)(O)CCC(F)(F)C(F)(F)C(F)(F)C(F)(F)C(F)(F)C(F)(F)F` [6:2 Fluorotelomer sulfonic acid]: the POD vs vehicle was > 100 µM.

For `OCCC(F)(F)C(F)(F)C(F)(F)C(F)(F)C(F)(F)C(F)(F)C(F)(F)C(F)(F)F` [8:2 Fluorotelomer alcohol], the POD vs vehicle was > 100 µM.

In turn, `O=S(=O)(O)CCC(F)(F)C(F)(F)C(F)(F)C(F)(F)C(F)(F)C(F)(F)C(F)(F)C(F)(F)F` [8:2 Fluorotelomer sulfonic acid] returned a POD vs vehicle of 60.9 µM.

The compound `O=C(O)C(F)(F)C(F)(F)C(F)(F)C(F)(F)C(F)(F)C(F)(F)C(F)(F)C(F)(F)Cl` [9-Chloro-perfluorononanoic_acid] displayed a POD vs vehicle of 39.9 µM.

For the compound `O=P(O)(O)CCC(F)(F)C(F)(F)C(F)(F)C(F)(F)C(F)(F)C(F)(F)C(F)(F)C(F)(F)F` [((Perfluorooctyl)ethyl)phosphonic_acid], the POD vs vehicle is > 100 µM.

Regarding `O=C([O-])C(F)(F)C(F)(F)C(F)(F)C(F)(F)C(F)(F)C(F)(F)C(F)(F)F.[NH4+]` [Ammonium_perfluorooctanoate], the POD vs vehicle was 43.5 µM.

The compound `OCC(F)(F)C(F)(F)C(F)(F)C(F)(F)C(F)(F)C(F)F` [Dodecafluoroheptanol] had a POD vs vehicle of 18.4 µM.

With `OCC(F)(F)OC(F)(F)C(F)(F)OC(F)(F)C(F)(F)OC(F)(F)F` [Fluorinated_triethylene_glycol_monomethyl_ether], the POD vs vehicle is > 100 µM.
